This is an account of results in patent US5668133A, “Ophthalmic compositions comprising emedastine and methods for their use” (priority 1995, dated 1997).

Test [1] deals with histamine-induced vascular permeability in guinea pig conjunctiva. The experiment in a line: histamine-induced vascular permeability in guinea pig conjunctiva, topical ocular pretreatment. It is filed as in vivo, guinea pig (Male Dunkin Hartley). How it is done: The topical ocular antihistaminic effect of emedastine difumarate was assessed in a model of histamine induced vascular permeability in guinea pig conjunctiva. The potency of emedastine difumarate in this model was then compared with those of reference antihistamines.
Male Dunkin Hartley Viral Antibody Free outbred guinea pigs (Charles River Labs, Portage, Mich.), weighing approximately 250-350 grams (6/group) were injected intravenously (i.v.) via the marginal ear vein with 1.0 mL of Evans Blue dye (1.0 mg/mL). Forty-five (45) minutes post dye injection, 20 μL of test compound or saline vehicle was applied topically to one eye of each experimental animal. […] Responses were quantitated as described by Yanni et al. in Int. Arch. Allergy Immunol., 101:102-106 (1993). Response scores from the treated groups were then compared with scores obtained in the saline-treated group using Dunnett's t test (Dunnett C. W., "A multiple comparison procedure for comparing treatments with a control." J. Am. Stat. Assoc. 50:1096-1121(1955)). Regression analysis was used to determine relative potency (Bliss, C. and E. Gjorgy. In Vitamin Methods, Vol. 2, pp. 445-610, Academic Press, Inc., New York, 1951.).

The conditions of test [2]: as compared to systemic activity; cited from earlier work.
In the next test the test system is allergic conjunctivitis. Particulars: without the addition of a vasoconstrictor; cited from earlier work.
Where [3] appears, read: 1 min pretreatment, 0.001 wt %, ketotifen/pheniramine experiment (NaCl 276 ± 10).
[4] abbreviates: 1 min pretreatment, 0.01 wt %, ketotifen/pheniramine experiment (NaCl 276 ± 10).
[5] abbreviates: 1 min pretreatment, 0.1 wt %, ketotifen/pheniramine experiment (NaCl 276 ± 10).
[6] abbreviates: 1 min pretreatment, relative to emedastine difumarate = 1.0, (95% Confidence Limits).
The mark [7] stands for this setting: 30 min pretreatment, relative to emedastine difumarate = 1.0, (95% Confidence limits).

The structures appear in SMILES notation.

As for `CN1CCC(=C2c3ccccc3CC(=O)c3sccc32)CC1` [Ketotifen, reference compound], the “Wheal Area × Intensity” value came out at 210 ± 11 in test [1] (1 min pretreatment, 0.0001 wt %, ketotifen/pheniramine experiment (NaCl 276 ± 10)); 138 ± 21 in test [1] (setting [3]); 89 ± 22 in test [1] (setting [4]); 33 ± 22 in test [1] (setting [5]). In addition, the Potency in test [1] (setting [6]) is reported as 0.288; in test [1] (topical, 0.5 h), 3.72 (0.973-11.892). In addition, the “Wheal Area × Intensity (x ± S.D.)” value in test [1] (30 min pretreatment, 0.0000007 wt %, ketotifen experiment (NaCl 214 ± 41)) was 157 ± 66; in test [1] (30 min pretreatment, 0.000007 wt %, ketotifen experiment (NaCl 214 ± 41)) it was 108 ± 52; in test [1] (30 min pretreatment, 0.00007 wt %, ketotifen experiment (NaCl 214 ± 41)), 61 ± 26.

Regarding `CN(C)CCC(c1ccc(Cl)cc1)c1ccccn1` (stereo not shown) [Chlorpheniramine, reference compound], the “Wheal Area × Intensity (X ± S.D.)” value in test [1] (30 min pretreatment, 0.0001 wt %, chlorpheniramine experiment (NaCl 217 ± 35)) turned out to be 161 ± 57; in test [1] (30 min pretreatment, 0.001 wt %, chlorpheniramine experiment (NaCl 217 ± 35)) it was 76 ± 22. In addition, in test [1] (30 min pretreatment, 0.01 wt %, chlorpheniramine experiment (NaCl 217 ± 35)), the “Wheal Area × Intensity (x ± S.D.)” value was 9 ± 12. Besides, in test [1] (setting [7]), the Potency is on record as 0.13 (0.056-0.295).

`CC(C)(C)c1ccc(C(O)CCCN2CCC(C(O)(c3ccccc3)c3ccccc3)CC2)cc1` (stereo not shown) [terfenadine]: the local ocular activity entry in test [2] is “little or no local ocular activity”.

As for `CN(C)CCC(c1ccccc1)c1ccccn1` (stereo not shown) [Pheniramine, reference compound], the “Wheal Area × Intensity” value in test [1] (setting [3]) was found to be 181 ± 16; in test [1] (setting [4]), 87 ± 40; in test [1] (setting [5]), 59 ± 23. The results for the Potency in test [1] (setting [6]) and in test [1] (setting [7]) were 0.130 and roughly 0.0028, respectively. For the same compound, the “Wheal Area × Intensity (x ± S.D.)” value in test [1] (30 min pretreatment, 0.003 wt %, levocabastine/pheniramine experiment (NaCl 252 ± 30)) was 175 ± 53; in test [1] (30 min pretreatment, 0.03 wt %, levocabastine/pheniramine experiment (NaCl 252 ± 30)), 122 ± 33.

For the compound `CN(C)CCC(c1ccc(Br)cc1)c1ccccn1` (stereo not shown) [Brompheniramine, reference compound], the “Wheal Area × Intensity (X ± S.D.)” value in test [1] (30 min pretreatment, 0.0001 wt %, brompheniramine experiment (NaCl 219 ± 20)) was found to be 167 ± 26; in test [1] (30 min pretreatment, 0.001 wt %, brompheniramine experiment (NaCl 219 ± 20)) it was 92 ± 44. Further, the “Wheal Area × Intensity (x ± S.D.)” value in test [1] (30 min pretreatment, 0.01 wt %, brompheniramine experiment (NaCl 219 ± 20)) amounted to 5 ± 8. The Potency in test [1] (setting [7]) is 0.14 (0.078-0.263).

In the case of `C[C@@H]1CN([C@H]2CC[C@](C#N)(c3ccc(F)cc3)CC2)CC[C@]1(C(=O)O)c1ccccc1` [Levocabastine, reference compound], in the test with allergic conjunctivitis, the “clinical activity in patients with allergic conjunctivitis” value is on record as “exhibits clinical activity”. Also, the “attenuation of histamine-induced vascular permeability response” value in test [1] (0.05%, topically 1 minute before histamine injection) is given as “failed to attenuate significantly”. For the same compound, in test [1] (1 min pretreatment, 0.05 wt %, levocabastine experiment (NaCl 336 ± 78)), the “Wheal Area × Intensity” value is 231 ± 58. In addition, the “Wheal Area × Intensity (x ± S.D.)” value worked out at 189 ± 66 in test [1] (30 min pretreatment, 0.0005 wt %, levocabastine/pheniramine experiment (NaCl 252 ± 30)); 116 ± 67 in test [1] (30 min pretreatment, 0.005 wt %, levocabastine/pheniramine experiment (NaCl 252 ± 30)); 56 ± 41 in test [1] (30 min pretreatment, 0.05 wt %, levocabastine/pheniramine experiment (NaCl 252 ± 30)). Moreover, the Potency in test [1] (setting [7]) is 0.01 (0.006-0.038).

Take `CCOC(=O)N1CCC(=C2c3ccc(Cl)cc3CCc3cccnc32)CC1` [loratadine]: the local ocular activity result in test [2] is on record as “greatly reduced local ocular activity”.

For the compound `COc1ccc(CCN2CCC(Nc3nc4ccccc4n3Cc3ccc(F)cc3)CC2)cc1` [astemizole], the local ocular activity result in test [2] was “greatly reduced local ocular activity”.

In the case of `CN1CCC[C@@H]1CCO[C@](C)(c1ccccc1)c1ccc(Cl)cc1` [Clemastine, reference compound], the “Wheal Area × Intensity (X ± S.D.)” value in test [1] (30 min pretreatment, 0.00001 wt %, clemastine experiment (NaCl 350 ± 31)) is reported as 283 ± 37; in test [1] (30 min pretreatment, 0.0001 wt %, clemastine experiment (NaCl 350 ± 31)), 131 ± 36; in test [1] (30 min pretreatment, 0.001 wt %, clemastine experiment (NaCl 350 ± 31)) it was 65 ± 28. Also, the “Wheal Area × Intensity (x ± S.D.)” value in test [1] (30 min pretreatment, 0.01 wt %, clemastine experiment (NaCl 350 ± 31)) is given as 18 ± 8.

As to `c1ccc(CN(CC2=NCCN2)c2ccccc2)cc1` [Antazoline, reference compound], the “Wheal Area × Intensity” value in test [1] (1 min pretreatment, 0.0001 wt %, antazoline experiment (NaCl 285 ± 19)) turned out to be 244 ± 14; in test [1] (1 min pretreatment, 0.001 wt %, antazoline experiment (NaCl 285 ± 19)), 178 ± 42; in test [1] (1 min pretreatment, 0.01 wt %, antazoline experiment (NaCl 285 ± 19)), 115 ± 6. Further, the Potency in test [1] (setting [6]) is 0.060; in test [1] (setting [7]) it was roughly 0.00017. Moreover, the “Wheal Area × Intensity (x ± S.D.)” value was 205 ± 61 in test [1] (30 min pretreatment, 0.01 wt %, antazoline experiment (NaCl 287 ± 20)); 145 ± 26 in test [1] (30 min pretreatment, 0.1 wt %, antazoline experiment (NaCl 287 ± 20)); 91 ± 27 in test [1] (30 min pretreatment, 1.0 wt %, antazoline experiment (NaCl 287 ± 20)).
